As a reminder, the IC50 is the concentration at which inhibition is half-maximal. High values mean weaker potency in that assay, low ones greater potency in that assay. Usually melting point stands for the temperature of the solid-liquid transition.

One data set has as its target T1, c-MET (Homo sapiens, UniProt P08581).
T1 construct: The recombinant DNA His-Tev-MET (956-1390) in pFastBac(Invitrogen); His (N, cleaved yes); Tev (TEV protease site) (N, cleaved yes); made in house; host or cells: SF21 insect cells (baculovirus, pFastBac)
The data set can be described thus: Test A: HTRF Met test in 96-well format. Format: biochemical. As for the experimental part:
I) Expression and Purification of MET, Cytoplasmic Domain
The recombinant DNA His-Tev-MET (956-1390) in pFastBac(Invitrogen) is transfected in insect cells and after several stages of viral amplification, the final stock of baculovirus is tested for expression of the protein of interest.
After infection for 72 h at 27° C. with the recombinant virus, the SF21 cell cultures are harvested by centrifugation and the cellular deposits are stored at −80° C.
The cellular deposits are resuspended in the lysis buffer (buffer A [50 mM HEPES, pH 7.5, 250 mM NaCl, Glycerol 10%, TECP 1 mM]; +cocktail of protease inhibitors Roche Diagnostics without EDTA, ref 1873580), stirred at 4° C. until homogeneous, then lysed mechanically using apparatus of the “Dounce” type.
After centrifugation, the lysis supernatant is incubated for 2 h at 4° C. with Nickel Chelate resin (His-Trap 6 Fast Flow™, GE HealthCare). After washing with 20 volumes of Tp A, the suspension is packed in a column, and the proteins are eluted with a gradient of buffer B ([…]+290 mM imidazole).
The fractions containing the protein of interest with a view to electrophoretic analysis (SDS PAGE) are collected, concentrated by ultrafiltration (cut-off 10 kDa) and injected in an exclusion chromatography column (Superdex™ 200, GE HealthCare) equilibrated with buffer A.
After enzymatic cleavage of the tag Histidine, the protein is reinjected in a new IMAC Nickel Chelate chromatography column (His-Trap 6 Fast Flow™, GE HealthCare) equilibrated with Buffer A. The fractions eluted with a gradient of buffer B and containing the protein of interest after electrophoresis (SDS PAGE), are finally collected and stored at −80° C.
For the production of autophosphorylated protein, the preceding fractions are incubated for 1 h at room temperature after adding ATP 2 mM, MgCl2 2 mM, and Na3VO4 4 mM. After stopping the reaction with 5 mM of EDTA, the reaction mixture is injected in a HiPrep desalting column (GE HealthCare) equilibrated beforehand with buffer A+Na3VO4 4 mM; the fractions containing the protein of interest (SDS PAGE analysis) are collected and stored at −80° C. The degree of phosphorylation is verified by mass spectrometry (LC-MS), and by peptide mapping.
A) HTRF Met test in 96-well format
In a final volume of 50 μl of enzymatic reaction mixture, final c-MET 5 nM is incubated in the presence of the molecule to be tested (for a final concentration range from 0.17 nM to 10 μM, final DMSO 3%) in buffer MOPS 10 mM pH 7.4, DTT 1 mM, Tween 20 0.01%. The reaction is initiated by the substrate solution to obtain the final concentrations of poly-(GAT) 1 μg/ml, ATP 10 μM and MgCl2 5 mM. After incubation for 10 min at room temperature, the reaction is stopped with a mix of 30 μl to obtain a final solution of Hepes 50 mM pH 7.5, potassium fluoride 500 mM, BSA 0.1% and EDTA 133 mM in the presence of 80 ng Streptavidin 61SAXLB Cis-Bio Int. and 18 ng anti-phosphotyrosine Mab PT66-Europium Cryptate per well. After 2 hours of incubation at room temperature, reading is carried out at 2 wavelengths 620 nm and 665 nm in a reader for the TRACE/HTRF technique and the percentage inhibition is calculated according to the 665/620 ratios.
For orientation: In TR-FRET formats the signal depends on donor and acceptor labels being close together.

A further data set deals with MKN45 cells. In words: Test D: cellular proliferation by 14C-thymidine pulse, MKN45 cells. It counts as cell-based. The note with it: Homo sapiens, MKN-45, cellular proliferation by 14C-thymidine pulse; cell line not stated (HCT116 or MKN45). As for the experimental part: D) Measurement of Cellular Proliferation by 14C-Thymidine Pulse
The cells are sown in Cytostar 96-well plates under 180 μl for 4 hours at 37° C. and 5% CO2: The HCT116 cells at a rate of 2500 cells per well in DMEM medium+10% foetal calf serum+1% of L-glutamine and the MKN45 cells at a rate of 7500 cells per well in RPMI medium+10% foetal calf serum+1% of L-glutamine. After said incubation for 4 hours, the products are added under 10 μl in 20-times concentrated solution according to the method of dilution stated for ELISA. The products are tested at 10 concentrations in duplicate from 10000 nM to 0.3 nM in steps of 3.
After treatment for 72 h, add 10 μl of 14C-thymidine at 10 μCi/ml to obtain 0.1 μCi per well. The incorporation of 14C-thymidine is measured on a Micro-Beta (Perkin-Elmer) after 24 hours of pulse and 96 h of treatment.
All the stages of the test are automated on the BIOMEK 2000 or TECAN stations.

A further data set deals with T2, MET (Homo sapiens, UniProt P08581).
T2 construct: endogenous in cells; host or cells: MKN45 cells
In words: Test C: inhibition of the autophosphorylation of MET, ELISA technique (pppY1230, 1234, 1235), MKN45 cells. Format: cell-based. As for the experimental part:
C) Inhibition of the Autophosphorylation of MET; ELISA Technique (pppY1230, 1234, 1235)
a) Cellular lysates: Sow the MKN45 cells in a 96-well plate (Cell coat BD polylysine) at 20 000 cells/well under 200 μl of medium RPMI+10% FCS+1% L-glutamine. Leave to adhere to the incubator for 24 h.
The cells are treated on the day after sowing with the products at 6 concentrations in duplicate for 1 h. At least 3 control wells are treated with the same amount of final DMSO.
Dilution of the products: Stock at 10 mM in pure DMSO—range from 10 mM to 30 μM with steps of 3 of pure DMSO—Intermediate dilutions to 1/50 in culture medium then taking of 10 μl added directly to the cells (200 μl): final range from 10000 to 30 nM.
At the end of incubation, carefully remove the supernatant and rinse with 200 μl of PBS. Then put 100 μl of lysis buffer directly in the wells on ice and incubate at 4° C. for 30 minutes. Lysis buffer: 10 mM Tris, HCl pH7.4, 100 mM NaCl, 1 mM EDTA, 1 mM EGTA, 1% Triton X-100, 10% glycerol, 0.1% SDS, 0.5% deoxycholate, 20 mM NaF, 2 mM Na3VO4, 1 mM PMSF and antiprotease cocktail.
The 100 μl of lysates are transferred to a V-bottomed polypropylene plate and ELISA is performed next or the plate is frozen at −80° C.
b) ELISA PhosphoMET BioSource Kit KH00281
In each well of the plate from the kit, add 70 μl of dilution buffer from the kit+30 μL of cell lysate or 30 μl of lysis buffer for the blank. Incubate for 2 h at room temperature, stirring gently.
Rinse the wells 4 times with 400 μl of washing buffer from the kit. Incubate with 100 μl of anti-phospho MET antibodies for 1 h at room temperature.
Rinse the wells 4 times with 400 μl of washing buffer from the kit. Incubate with 100 μl of anti-rabbit HRP antibodies for 30 minutes at room temperature (except for the wells with chromogen only).
Rinse the wells 4 times with 400 μl of washing buffer from the kit. Add 100 μL of chromogen and incubate for 30 minutes in the dark at room temperature.
Stop the reaction with 100 μl of stop solution. Read at once at […] 0.1 second in the Wallac Victor plate reader.
The products of formula (I) as defined above show cellular activity in this test between 10 nM and 10 μM.
For orientation: In an ELISA, binding on a coated surface is turned into a signal by an enzyme label.

T1 sequence (P08581 956-1390): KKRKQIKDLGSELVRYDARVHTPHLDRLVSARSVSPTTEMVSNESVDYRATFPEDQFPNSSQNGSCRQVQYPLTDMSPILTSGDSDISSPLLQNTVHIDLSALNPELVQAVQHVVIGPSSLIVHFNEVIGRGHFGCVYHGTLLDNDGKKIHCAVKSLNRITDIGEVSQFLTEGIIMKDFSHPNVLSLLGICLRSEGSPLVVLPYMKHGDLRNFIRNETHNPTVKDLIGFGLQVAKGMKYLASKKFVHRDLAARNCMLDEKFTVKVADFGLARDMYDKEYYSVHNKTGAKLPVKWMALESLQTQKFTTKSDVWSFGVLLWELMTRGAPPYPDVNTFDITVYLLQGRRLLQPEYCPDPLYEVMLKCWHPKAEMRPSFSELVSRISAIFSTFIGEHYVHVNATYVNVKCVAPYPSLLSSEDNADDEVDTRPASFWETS
T2 sequence (P08581 25-1390): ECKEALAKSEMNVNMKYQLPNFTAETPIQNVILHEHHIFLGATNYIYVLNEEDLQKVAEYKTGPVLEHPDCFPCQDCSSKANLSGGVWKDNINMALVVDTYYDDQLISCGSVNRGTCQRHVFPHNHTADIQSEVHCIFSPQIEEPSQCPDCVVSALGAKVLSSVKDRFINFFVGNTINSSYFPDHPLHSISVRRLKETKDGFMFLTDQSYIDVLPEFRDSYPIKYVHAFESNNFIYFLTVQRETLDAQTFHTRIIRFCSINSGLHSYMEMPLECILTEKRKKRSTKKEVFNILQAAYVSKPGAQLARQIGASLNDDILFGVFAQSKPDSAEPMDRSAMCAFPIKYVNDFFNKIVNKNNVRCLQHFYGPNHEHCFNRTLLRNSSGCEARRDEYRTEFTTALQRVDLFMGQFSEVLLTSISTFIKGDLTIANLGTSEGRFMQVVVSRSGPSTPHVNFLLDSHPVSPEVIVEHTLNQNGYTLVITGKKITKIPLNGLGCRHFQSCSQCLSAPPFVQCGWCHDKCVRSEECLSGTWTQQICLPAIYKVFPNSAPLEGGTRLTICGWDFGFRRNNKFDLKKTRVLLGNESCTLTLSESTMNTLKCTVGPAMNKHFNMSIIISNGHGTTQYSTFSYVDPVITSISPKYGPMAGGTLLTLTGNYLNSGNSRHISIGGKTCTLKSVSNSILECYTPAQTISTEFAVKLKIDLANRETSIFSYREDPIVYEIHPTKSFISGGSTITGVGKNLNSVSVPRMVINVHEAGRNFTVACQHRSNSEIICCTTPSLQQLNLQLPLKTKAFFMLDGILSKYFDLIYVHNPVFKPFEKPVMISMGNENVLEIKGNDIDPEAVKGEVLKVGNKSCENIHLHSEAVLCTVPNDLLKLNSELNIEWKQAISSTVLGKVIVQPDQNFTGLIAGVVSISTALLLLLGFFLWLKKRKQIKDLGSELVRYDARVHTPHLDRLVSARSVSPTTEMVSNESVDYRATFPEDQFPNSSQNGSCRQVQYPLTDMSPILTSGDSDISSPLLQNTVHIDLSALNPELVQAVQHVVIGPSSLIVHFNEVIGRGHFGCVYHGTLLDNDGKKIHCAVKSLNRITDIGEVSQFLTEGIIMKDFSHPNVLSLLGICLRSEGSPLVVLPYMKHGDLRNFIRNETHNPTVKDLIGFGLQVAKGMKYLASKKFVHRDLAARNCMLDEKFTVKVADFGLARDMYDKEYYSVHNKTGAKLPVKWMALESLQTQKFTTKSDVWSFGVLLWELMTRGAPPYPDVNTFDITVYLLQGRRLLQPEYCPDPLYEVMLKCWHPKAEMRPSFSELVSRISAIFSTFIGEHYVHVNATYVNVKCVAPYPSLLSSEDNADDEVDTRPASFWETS

Consider `Nc1nc2ccc(OCc3c(F)cccc3Cl)cc2s1` [Example 8, 6-[(2-chloro-6-fluorobenzyl)oxy]-1,3-benzothiazol-2-amine], for which the melting point stood at 175 °C. Also, the IC50 at c-MET was 100 to 10000 nM. In the data set on MKN45 cells, this molecule showed an IC50 of over 10000 nM.
`O=C(Nc1nc2ccc(OCc3c(Cl)cccc3Cl)cc2s1)C1CC1` [Example 9, N-{6-[(2,6-dichlorobenzyl)oxy]-1,3-benzothiazol-2-yl}cyclopropane carboxamide]: the melting point was 178 °C. On c-MET, this molecule had an IC50 of under 100 nM. Besides, in the data set on MKN45 cells, the IC50 is under 500 nM.
With `Nc1nc2ccc(OCc3c(F)cccc3F)cc2s1` [Example 12, 6-[(2,6-difluorobenzyl)oxy]-1,3-benzothiazol-2-amine], the melting point worked out at 178 °C. The half-inhibitory concentration (IC50) with MKN45 cells was over 10000 nM.
Consider `O=C(NCCN1CCOCC1)Nc1nc2ccc(OCc3cc(Cl)nc(Cl)c3)cc2s1` [Example 16, 1-{6-[(2,6-dichloropyridin-4-yl)methoxy]-1,3-benzothiazol-2-yl}-3-(2-morpholin-4-ylethyl)urea], for which the melting point worked out at 193 °C. The same molecule came in with an IC50 at c-MET of 100 to 10000 nM. Besides, the IC50 with MKN45 cells is over 10000 nM.
For `Cc1cc(COc2ccc3nc(NC(=O)NCCN4CCOCC4)sc3c2)n(C)n1` [Example 20, 1-{6-[(1,3-dimethyl-1H-pyrazol-5-yl)methoxy]-1,3-benzothiazol-2-yl}-3-(2-morpholin-4-ylethyl)urea], the melting point amounted to 160 °C. Moreover, the IC50 at c-MET was in the range of 100 to 10000 nM. The half-inhibitory concentration (IC50) in the data set with MKN45 cells is over 10000 nM.
As for `O=C(Nc1nc2cc(F)c(OCc3c(Cl)cccc3Cl)cc2s1)C1CC1` [Example 22, N-{6-[(2,6-dichlorobenzyl)oxy]-5-fluoro-1,3-benzothiazol-2-yl}cyclopropanecarboxamide], the melting point stood at 215 °C. For the same molecule, the IC50 against c-MET is under 100 nM. Also, the IC50 against MET lay in the range of 500 to 10000 nM. Moreover, the IC50 in the data set with MKN45 cells was over 10000 nM.
The molecule `CC(Oc1ccc2nc(N)sc2c1)c1c(Cl)ccc(F)c1Cl` (stereo not shown) [Example 23, 6-[1-(2,6-dichloro-3-fluorophenyl)ethoxy]-1,3-benzothiazol-2-amine] gave a melting point of 186 to 194 °C. Moreover, the concentration for half-maximal inhibition (IC50) at c-MET fell in the range of 100 to 10000 nM. In the data set with MKN45 cells, this molecule yielded an IC50 of over 10000 nM.
Taken in the same sequence, the figures for `Cc1ccc(F)c(C(C)Oc2ccc3nc(N)sc3c2)c1Cl` (stereo not shown) [Example 27, 6-[1-(2-chloro-6-fluoro-3-methylphenyl)ethoxy]-1,3-benzothiazol-2-amine] were 170 °C, 100 to 10000 nM and over 10000 nM.
In turn, `CC(Oc1ccc2nc(NC(=O)NCCC3CCN(C(=O)OC(C)(C)C)CC3)sc2c1)c1c(Cl)ccc(F)c1Cl` (stereo not shown) [Example 38, 1,1-dimethylethyl 4-{2-[({6-[1-(2,6-dichloro-3-fluorophenyl)ethoxy]-1,3-benzothiazol-2-yl}carbamoyl)amino]ethyl}piperidine-1-carboxylate] gave a melting point of 95 to 105 °C. The same molecule displayed an IC50 with MKN45 cells of over 10000 nM.
For the molecule `CC(Oc1ccc2nc(NC(=O)NCCN3CCOCC3)sc2c1)c1c(F)ccc(Cl)c1F` (stereo not shown) [Example 63, 1-{6-[1-(3-chloro-2,6-difluorophenyl)ethoxy]-1,3-benzothiazol-2-yl}-3-(2-morpholin-4-ylethyl)urea], the melting point worked out at 154 °C. The same molecule yielded an IC50 at c-MET of 100 to 10000 nM. At MET, this molecule yielded an IC50 of 500 to 10000 nM. Also, the IC50 with MKN45 cells is over 10000 nM.
On the same counts, the results for `CC(Oc1cc2sc(NC(=O)C3CC3)nc2cc1F)c1c(Cl)ccc(F)c1Cl` (stereo not shown) [Example 67, N-{6-[1-(2,6-dichloro-3-fluorophenyl)ethoxy]-5-fluoro-1,3-benzothiazol-2-yl}cyclopropanecarboxamide] are 186 to 189 °C, under 100 nM, under 500 nM and under 500 nM.
On to `CCOCCNC(=O)Nc1nc2cc(F)c(OC(C)c3c(Cl)ccc(F)c3Cl)cc2s1` (stereo not shown) [Example 86, 1-{6-[1-(2,6-dichloro-3-fluorophenyl)ethoxy]-5-fluoro-1,3-benzothiazol-2-yl}-3-(2-ethoxyethyl)urea], for which the melting point fell in the range of 166 to 167 °C. The IC50 against c-MET was under 100 nM. In addition, the IC50 on MET is under 500 nM. In the data set on MKN45 cells, this molecule gave an IC50 of 500 to 10000 nM.
On the same counts, the results for `CC(Oc1cc2sc(NC(=O)NCCn3cccc3)nc2cc1F)c1c(Cl)ccc(F)c1Cl` (stereo not shown) [Example 91, 1-{6-[1-(2,6-dichloro-3-fluorophenyl)ethoxy]-5-fluoro-1,3-benzothiazol-2-yl}-3-[2-(1H-pyrrol-1-yl)ethyl]urea] are 178 to 198 °C, under 100 nM, 500 to 10000 nM and 500 to 10000 nM.
Taken in the same sequence, the figures for `CC(C)OCCNC(=O)Nc1nc2cc(F)c(OC(C)c3c(Cl)ccc(F)c3Cl)cc2s1` (stereo not shown) [Example 92, 1-{6-[1-(2,6-dichloro-3-fluorophenyl)ethoxy]-5-fluoro-1,3-benzothiazol-2-yl}-3-(2-isopropoxyethyl)urea] were 177 to 184 °C, under 100 nM, under 500 nM and 500 to 10000 nM.

The values above are taken from US8188078B2 (Sanofi-Aventis, priority 2007, dated 2012).
